Results as given in US8252807B2, “Methods of inhibiting the interaction between S100 and the receptor for advanced glycation end-products” (Board of Regents, The University of Texas System, priority 2007, dated 2012).

Assays:
BxPC-3 cells = experiment: BxPC-3 cell growth (MTS); assay type: cell-based; conditions: 48 hours; for BxPC-3 basal cell proliferation, mean: 0 μM mean=1.2
Experimental: BxPC-3 cells were plated at 1.0×10^3 cells/well and treated with 0 μM, 1 μM, 10 μM, and 100 μM of cromolyn, and cell proliferation was analyzed after 48 hours. Means and 95% confidence intervals of three independent experiments performed in triplicate are shown. *, P=0.002; †, P<0.001 versus control. Growth of Panc-1 and BxPC3 pancreatic adenocarcinoma cells was analyzed using MTS reagent (Promega, Madison, Wis.) according to the manufacturer's directions. Purified S100P (100 nM final concentration) with or without cromolyn (100 μM final concentration) was added to Panc-1 cells. Only cromolyn (0-100 μM) was added to BxPC-3 cells, which express endogenous S100P. For both cell models, 1.0×10^3 cells/well were plated in 96-well culture dishes. Cells were treated with S100P, PDGF, or cromolyn, or a combination, followed immediately by treatment with either S100P or PDGF. MTS (20 μL per well) was added to cells at various times, and the mixture was incubated for 1 hour at 37° C. Samples were then read at 490 nm (as O.D. units) on a uQuant-Microplate Spectrophotometer (Bio-Tek Services Inc., Richmond, Va.). The assay was performed three times in triplicate.

S100P and RAGE = biological target: T1, S100P and RAGE (Homo sapiens, UniProt P25815); experiment: Co-immunoprecipitation of S100P and RAGE from BxPC-3 cell lysates; assay type: binding; conditions: cromolyn 100 μM
T1 construct: endogenous in cells; host or cells: BxPC-3 pancreatic adenocarcinoma cell lysate
T1 sequence (P25815 1-95): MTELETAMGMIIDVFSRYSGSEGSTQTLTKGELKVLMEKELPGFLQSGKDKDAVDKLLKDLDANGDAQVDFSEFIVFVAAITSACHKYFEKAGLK
Experimental: Receptor for advanced glycation end products (RAGE) was identified in the immunoprecipitates by immunoblotting with a goat polyclonal anti-RAGE antibody and anti-S100P as an internal control. In the lower panel, one representative blot and densitometric analysis (means and 95% confidence intervals [CIs]) of three independent experiments is shown. *P<0.001, versus IP α-S100P without cromolyn.
For co-immunoprecipitation experiments, BxPC-3 cell lysates were incubated in the absence or presence of cromolyn (100 μM) at 4° C. overnight. S100P was immunoprecipitated using a mouse monoclonal anti-S100P antibody (Transduction Laboratories, San Diego, Calif.) for 6 hours at 4° C. and IgG-immobilized beads (Pierce Biotechnology, Inc. Rockford, Ill.). Antibody-associated proteins were electrophoresed on 10% polyacrylamide gels and electrophoretically transferred to nitrocellulose membranes. Membranes were blocked in PBS/5% milk overnight at 4° C. RAGE was detected using a goat polyclonal anti-RAGE antibody (1:200, Santa Cruz, Santa Cruz, Calif.), and S100P was detected using a goat polyclonal anti-S100P antibody (1:50, R & D systems, Minneapolis, Minn.) by immunoblotting as described in Arumugam, et al., S100P stimulates cell proliferation and survival via receptor for activated glycation end products (RAGE); J. Biol. Chem. 2004 Feb. 13; 279(7):5059-65. Briefly, membranes were incubated in primary antibody for 1 hour at room temperature followed by incubation with horseradish peroxidase-labeled secondary antibody for 30 minutes at room temperature. After a thorough wash in TBS-T buffer (1M Tris-HCL pH 8.3, 3M NaCl, 0.1% Tween-20), antibody-protein complexes were detected by using a chemiluminescent substrate (GE Healthcare Bio-Sciences Corp., Piscataway, N.J.). The intensity of the band was estimated (as density units) using densitometry (GS-250 Molecular Imaging System, Bio-Rad Laboratories, Richmond, Calif.). The experiment was repeated three times.

[1] = test system: S100s A1, B, A12, and A13; conditions: previously found; cited from earlier work
S100P binding with RAGE = biological target: T2, S100P binding with RAGE (Homo sapiens, UniProt P25815); experiment: S100P binding with RAGE ELISA (sRAGE coated plate)
T2 construct: full-length human S100P cDNA (NM_005980) was cloned into the pTrcHis2 vector; His tag
T2 sequence (P25815 1-95): T1 sequence (P25815 1-95)
Experimental: After removing un-bound S100P by washing with detergent, the bound S100P and RAGE complex was quantified by adding HRP labeled antibody against S100P. *, P=0.04 C5 μM versus cromolyn 5 μM. Two-tailed two-sample (unpaired) Student's t-tests were used to determine P values.

[2] = background statement; cited from earlier work
PC3 prostate cells [3] = experiment: PC3 prostate cell proliferation; assay type: cell-based; conditions: 24, 48 and 72 hours
Experimental: PC3 prostate cells were cultured for up to three days in the presence of different concentrations of cromolyn, and cell proliferation was analyzed at 24, 48, and 72 hours. *, P<0.05.

PC3 prostate cells [4] = experiment: PC3 prostate cell viability with taxol; assay type: cell-based; conditions: taxol 100 nM, cromolyn 10 μM, 48 hours
Experimental: PC3 prostate cells were plated and treated with taxol (100 nM) either in the presence or absence of cromolyn (10 μM) for 48 hours. Cell viability was analyzed after 48 hours. *, P<0.05.

- co-immunoprecipitation of S100P and RAGE, difference control versus cromolyn (S100P and RAGE): 25640 density units
- total amount of S100P immunoprecipitated (S100P and RAGE): no effect
- co-immunoprecipitation of S100P and RAGE, mean (S100P and RAGE; control mean=34040): 8410 density units
- concentration achieving the same level of S100P inhibition (S100P binding with RAGE): 5 µM
- interaction between S100P with RAGE (S100P binding with RAGE): blocked
Compound: O=C(O)c1cc(=O)c2c(OCC(O)COc3cccc4oc(C(=O)O)cc(=O)c34)cccc2o1 [cromolyn, disodium 1,3-bis[(2′-carboxylatochromon-5′-yl)oxy]-2-hydroxypropane]
- BxPC-3 cell proliferation, difference versus 0 μM (BxPC-3 cells; cromolyn 10 μM): 0.5 MTS units
- BxPC-3 basal cell proliferation, mean (BxPC-3 cells; cromolyn 10 μM): 0.7 MTS units
- BxPC-3 cell proliferation, difference versus 0 μM (BxPC-3 cells; cromolyn 100 μM): 0.6 MTS units
- BxPC-3 basal cell proliferation, mean (BxPC-3 cells; cromolyn 100 μM): 0.6 MTS units
- binding to S100 proteins [1]: bind
- permeability to cells [2]: impermeant to cells
- growth of PC3 cells (PC3 prostate cells [3]): reduced growth
- cell killing effect of taxol on prostate cancer cells (PC3 prostate cells [4]): increased the cell killing effect of taxol
